In experiment [1] the target is T1, human mPGES-1 (Homo sapiens, UniProt O14684).
T1 construct: made in house; host or cells: Chinese hamster ovary-derived cells (FreeStyle CHO-S), transient transfection of pcDNA3.1(+)/human mPGES-1; microsome fraction
T1 sequence (O14684 1-152): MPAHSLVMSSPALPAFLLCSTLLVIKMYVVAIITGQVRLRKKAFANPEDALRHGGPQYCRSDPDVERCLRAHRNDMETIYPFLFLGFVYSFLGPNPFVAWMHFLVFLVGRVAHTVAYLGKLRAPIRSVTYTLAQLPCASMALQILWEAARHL
Kind of experiment: Evaluation of human mPGES-1 enzyme inhibitory activity (HTRF measurement of PGE2). The experiment is classed as biochemical. The conditions noted are these: IC50 value; microsome fraction of CHO-S cells expressing human mPGES-1, PGH2 substrate, PGE2 by HTRF; read-out: humans mPGES-1 enzyme inhibitory activity. As to the method:
Experimental Example 1: Evaluation of Human mPGES-1 Enzyme Inhibitory Activity
The human mPGES-1 enzyme inhibitory activity of a test article was evaluated according to the report of Xu et al. (XU, D et al. MF63 [2-(6-chloro-1H-phenanthro[9,10-d]imidazol-2-yl)-isophthalonitrile], a selective microsomal prostaglandin E synthase-1 inhibitor relieves pyresis and pain in preclinical models of inflammation. J Pharmacol Exp Ther. September 2008, Vol. 326, No. 3, pages 754-763). The amount of PGE2 produced by human mPGES-1 in the presence of a test article was measured by the HTRF (homogeneous time resolved fluorescence) method, and the human mPGES-1 enzyme inhibitory activity of the test article was determined.
1) Preparation of Human mPGES-1 Expressing Cell Microsome Fraction
A DNA fragment containing human mPGES-1, which is added with a BamHI recognition cleavage sequence just before the translation initiation codon and an EcoRI recognition cleavage sequence just after the translation termination codon, was amplified by the PCR (Polymerase Chain Reaction) method using a human mPGES-1 expression plasmid DNA (pME-18S/iPGES-1) prepared in-house as a template. The purified DNA fragment was digested with BamHI and EcoRI, and ligated to pcDNA3.1(+) (Invitrogen, model number V790-20), similarly_digested with BamHI and EcoRI, by using a DNA Ligation kit ver. 2.1 (Takara Bio, model number 6022). The human mPGES-1 expression plasmid DNA was isolated from Escherichia coli DH5a (TOYOBO, model number DNA-903) transformed with the obtained ligation product. The base sequence of human mPGES-1 cloned to a vector was determined by the Dye Terminator method using BigDye Terminator v3.1 Cycle Sequencing Kit (Applied Biosystems, #4337455). The determined sequence was identical with the sequence of the protein translational region of human mPGES-1 (Accession number NM 004878) registered in the NCBI Reference Database.
Human mPGES-1 expression plasmid DNA was transfected into Chinese hamster ovary-derived cells (FreeStyle CHO-S Cell, Invitrogen, #R^800-07) by using a transgene reagent (FreeStyle MAX Reagent (Invitrogen, #16447-100)), and cultured with shaking (8% CO2, 37° C.) in a medium containing 8 mmol/L L-glutamine (GIBCO FreeStyle CHO Expression Medium, Invitrogen, #12651-022) for 48 hr.
The CHO-S cells were suspended in Homogenate Buffer (100 mmol/L potassium phosphate (pH 7.4), 250 mmol/L Sucrose, 100 mmol/L EDTA, complete EDTA free (Roche, #1873580)). Using an ultrasonic disruptor UD-201 (Tomy Seiko), the suspended cells were disrupted at output:3, duty cycle:50 for 30 seconds. The precipitate was removed by centrifugation (1,000×g, 5 min, 4° C.), and the supernatant was centrifuged (5,000×g, 10 min, 4° C.). The supernatant was further centrifuged (105,000×g, 60 min, 4° C.). The obtained precipitate was suspended in Resuspension Buffer (100 mmol/L potassium phosphate (pH 7.4), 250 mmol/L sucrose, 100 mmol/L EDTA, 10% glycerol) to give a microsome fraction.
The protein concentration of the microsome fraction was measured by the Bradford method (Protein Assay Kit, Bio-Rad). The microsome fraction was rapidly frozen in liquid nitrogen and preserved at −80° C. Human mPGES-1 in the microsome fraction was detected by Western Blot using rabbit anti-mPGES-1 polyclonal antibody (ThermoFisher Scientific, #PA1-10264).
2) Evaluation of Human mPGES-1 Enzyme Inhibitory Activity
A test article solution diluted with 0.1 mol/L potassium phosphate, pH 7.4 (hereinafter to be referred to as KPB) or DMSO (Nacalai Tesque, #13407-45) was added at 5 μL/well to 96 well V-bottom plate (Corning, #3363). The final DMSO concentration during the reaction was set to 2%(v/v). Furthermore, a microsome fraction of CHO-S cells expressing human mPGES-1, which was diluted with reduced GSH (12.5 mmol/L KPB solution, SIGMA, #G6529-25G) such that the protein concentration was 5 μg/mL, was added at 20 μL/well. […]
(In general: TR-FRET usually uses a lanthanide donor and a delayed reading to cut background.)

In experiment [2] the test system is A549 cell. Kind of experiment: Evaluation of PGE2 production inhibitory action using A549 cell (IL-1β stimulated). The conditions noted are these: Homo sapiens, A549, 18 h, IC50 value; A549 cell, recombinant IL-1β 1 ng/mL, 18 hr, PGE2 in supernatant; read-out: cell PGE2 production inhibitory activity. The experiment is classed as cell-based, human. As to the method: Experimental Example 2: Evaluation of PGE2 Production Inhibitory Action Using A549 Cell
A549 cell (Japan Health Sciences Foundation Research Resources Bank), which is cell line derived from humans lung cancer, was suspended in assay medium (Ham's F-12K (Wako, #080-08565) containing 2% FBS (Hyclone Laboratories, #SH30910.03), 100 units/mL penicillin and 100 μg/mL streptomycin (Invitrogen, #15140-122)), the suspension was added at 2.5×10^4 cells/100 μL/well to 96 well flat-bottom plate (Corning, #353072), and the plate was left standing for 20 hr in a CO2 incubator set at 37° C. The test article was serially diluted with DMSO (Nacalai Tesque, #13407-45), and then 20-fold diluted with the assay medium to prepare a test article solution having a ten-fold concentration of the final concentration. The final DMSO concentration during the reaction was set to 0.5% (v/v). The medium was removed from the plate in which the cell was added, new assay medium was added at 160 μL/well to the plate, and the plate was left standing for 10 min in a CO2 incubator. Then, the test article solution was added at 20 μL/well to the plate, and the plate was left standing for 30 min in a CO2 incubator. Next, recombinant humans IL-1β (R&D Systems, #201-LB) as a stimulant to enhance PGE2 production due to increase of mPGES-1 mRNA expression was added at 20 μL/well (the final concentration was 1 ng/mL) to the plate, and the plate was left standing for 18 hr in a CO2 incubator. The supernatant was collected at 180 μL/well, and the PGE2 concentration was measured using Prostaglandin E2 assay (CISbio Bioassays, #62P2APEC) according to the manual. As the reference standard for analytical curve, PGE2 (Cayman Chemical, #14010) was used. Using EnVision 2104 (Perkin Elmer), the time-resolved fluorescence at 620 nm and 665 nm relative to the excitation light at 337 nm was measured. PGE2 concentration was extrapolated from the PGE2 analytical curve. Average of the PGE2 concentrations of the respectively-treated wells was used as the data.
The PGE2 production inhibitory activity (%) of the test article was calculated according to the following Formula 3. PGE2 production inhibitory activity(%)=(PGE2A−PGE2X)/(PGE2A−PGE2B)×100 [Formula 3] • PGE2A: PGE2 concentration of vehicle-treated well • PGE2B: PGE2 concentration of blank well (no addition of recombinant humans IL-1B) • PGE2X: PGE2 concentration of test article-treated well

As for `CC(C)c1cccc(-c2nc(O)nc(-c3cc(CNC(=O)C4(F)CCCCC4)ccc3Cl)n2)c1` [Example 39], the IC50 in experiment [1] turned out to be 3.9 nM; in experiment [2], 57 nM.

`CC(C)Oc1ccc(-c2nc(O)nc(-c3cc(CNC(=O)C(C)(C)C(F)(F)F)ccc3Cl)n2)cn1` [Example 40]: the figures for the IC50 in experiment [1] and in experiment [2] were 0.8 nM and 45 nM, respectively.

`CC(C)c1cccc(-c2nc(O)nc(-c3cc(CNC(=O)C4(F)CCCC4)ccc3Cl)n2)c1` [Example 41]: the figures for the IC50 in experiment [1] and in experiment [2] were 1.3 nM and 23 nM, respectively.

On to `CC[C@@H](C)Oc1ccc(-c2nc(O)nc(-c3cc(CNC(=O)C(C)(C)C(F)(F)F)ccc3Cl)n2)cn1` [Example 42], for which the IC50 in experiment [1] came to 1.3 nM; in experiment [2], 7.9 nM.

In the case of `CCC(C)(C)c1cccc(-c2nc(O)nc(-c3cc(CNC(=O)C(C)(C)C(F)(F)F)ccc3Cl)n2)c1` [Example 43], the figures for the IC50 in experiment [1] and in experiment [2] were 3.5 nM and 6.5 nM, respectively.

For `COC(C)(C)c1cccc(-c2nc(O)nc(-c3cc(CNC(=O)C(C)(C)C(F)(F)F)ccc3Cl)n2)c1` [Example 44], the results for the IC50 in experiment [1] and in experiment [2] were 3.6 nM and 26 nM, respectively.

Regarding `CCCOc1ccc(-c2nc(O)nc(-c3cc(CNC(=O)C4(C(F)(F)F)CCCC4)ccc3Cl)n2)cn1` [Example 45], the IC50 in experiment [1] is 1.3 nM; in experiment [2], 8 nM.

Take `CCCOc1ccc(-c2nc(O)nc(-c3cc(CNC(=O)C4(C(F)(F)F)CCCCC4)ccc3Cl)n2)cn1` [Example 46]: the IC50 worked out at 3.2 nM in experiment [1] and 4.1 nM in experiment [2].

`CCCCC(C)(C)C(=O)NCc1ccc(Cl)c(-c2nc(O)nc(-c3ccc(OCCC)nc3)n2)c1` [Example 47]: the IC50 in experiment [1] was 2.1 nM; in experiment [2] it was 100 nM.

In the case of `CC(C)c1cc(-c2nc(O)nc(-c3cc(CNC(=O)C(C)(C)C(F)(F)F)ccc3Cl)n2)ccc1Cl` [Example 48, N-{4-chloro-3-[4-(4-chloro-3-isopropylphenyl)-6-hydroxy-1,3,5-triazin-2-yl]benzyl}-3,3,3-trifluoro-2,2-dimethylpropionamide], the results for the IC50 in experiment [1] and in experiment [2] were 0.5 nM and 2.7 nM, respectively.

For `CC1(c2cccc(-c3nc(O)nc(-c4cc(CNC(=O)C(C)(C)C(F)(F)F)ccc4Cl)n3)c2)CC1` [Example 49, N-(4-chloro-3-{4-hydroxy-6-[3-(1-methylcyclopropyl)phenyl]-1,3,5-triazin-2-yl}benzyl)-3,3,3-trifluoro-2,2-dimethylpropionamide], the IC50 in experiment [1] was found to be 0.5 nM; in experiment [2], 7.3 nM.

For the compound `CC(C)(C(=O)NCc1ccc(Cl)c(-c2nc(O)nc(-c3ccc(OC4CC4)nc3)n2)c1)C(F)(F)F` [Example 50], the IC50 in experiment [1] is 0.5 nM; in experiment [2], 170 nM.

As to `CCCCC(C)(C)C(=O)NCc1ccc(Cl)c(-c2nc(O)nc(-c3ccc(OCC)nc3)n2)c1` [Example 51], the figures for the IC50 in experiment [1] and in experiment [2] were 0.6 nM and 410 nM, respectively.

As for `CC(C)c1cccc(-c2nc(O)nc(-c3cc(CNC(=O)C4(C(F)(F)F)CCCC4)ccc3Cl)n2)c1` [Example 52, 1-trifluoromethylcyclopentanecarboxylic acid 4-chloro-3-[4-hydroxy-6-(3-isopropylphenyl)-1,3,5-triazin-2-yl]benzylamide], the IC50 in experiment [1] turned out to be 1.1 nM; in experiment [2], 6 nM.

`Cc1ccc(-c2nc(O)nc(-c3cc(CNC(=O)C(C)(C)C(F)(F)F)ccc3Cl)n2)cc1C(C)C` [Example 53]: the figures for the IC50 in experiment [1] and in experiment [2] were 0.4 nM and 3.7 nM, respectively.

With `Cc1ccc(-c2nc(O)nc(-c3cc(CNC(=O)C(C)(C)C(F)(F)F)ccc3Cl)n2)cc1C(C)(C)C` [Example 54], the IC50 in experiment [1] was 0.5 nM; in experiment [2] it was 2.9 nM.

Consider `CC(C)c1cc(-c2nc(O)nc(-c3cc(CNC(=O)C4(C(F)(F)F)CCCC4)ccc3Cl)n2)ccc1Cl` [Example 55], for which the values for the IC50 in experiment [1] and in experiment [2] were 1.9 nM and 2.6 nM, respectively.

`CO[C@](C)(C(=O)NCc1ccc(Cl)c(-c2nc(O)nc(-c3ccc(Cl)c(C(C)C)c3)n2)c1)C(F)(F)F` [Example 56]: the results for the IC50 in experiment [1] and in experiment [2] were 0.7 nM and 2.6 nM, respectively.

`COC1(C(=O)NCc2ccc(Cl)c(-c3nc(O)nc(-c4ccc(Cl)c(C(C)C)c4)n3)c2)CCCCC1` [Example 57]: the IC50 in experiment [1] was found to be 2.9 nM; in experiment [2], 4.5 nM.

On to `COc1ncc(-c2nc(O)nc(-c3cc(CNC(=O)C(C)(C)C(F)(F)F)ccc3Cl)n2)cc1C(C)C` [Example 58], for which the IC50 in experiment [1] came to 1 nM; in experiment [2], 150 nM.

For `CC(C)(C(=O)NCc1ccc(Cl)c(-c2nc(O)nc(-c3ccc(OC4CCC4)nc3)n2)c1)C(F)(F)F` [Example 59], the results for the IC50 in experiment [1] and in experiment [2] were 0.3 nM and 53 nM, respectively.

For the compound `O=C(NCc1ccc(Cl)c(-c2nc(O)nc(-c3ccc(OC4CCC4)nc3)n2)c1)C1(C(F)(F)F)CCCCC1` [Example 60], the IC50 in experiment [1] is 0.4 nM; in experiment [2], 8.3 nM.
